Data as given in patent US11932658B2 (BRISTOL-MYERS SQUIBB COMPANY, priority 2016, dated 2024).

biological target: T1, PAR4 (Homo sapiens, UniProt Q96RI0); experiment: PAR4 FLIPR assay (antagonism of agonist peptide-induced calcium mobilization); type: cell-based
T1 construct: expressed in transfected cells; host or cells: HEK293 PAR4 Clone 1.2A (BMS Arctic ID 383940)
T1 sequence (Q96RI0 18-385): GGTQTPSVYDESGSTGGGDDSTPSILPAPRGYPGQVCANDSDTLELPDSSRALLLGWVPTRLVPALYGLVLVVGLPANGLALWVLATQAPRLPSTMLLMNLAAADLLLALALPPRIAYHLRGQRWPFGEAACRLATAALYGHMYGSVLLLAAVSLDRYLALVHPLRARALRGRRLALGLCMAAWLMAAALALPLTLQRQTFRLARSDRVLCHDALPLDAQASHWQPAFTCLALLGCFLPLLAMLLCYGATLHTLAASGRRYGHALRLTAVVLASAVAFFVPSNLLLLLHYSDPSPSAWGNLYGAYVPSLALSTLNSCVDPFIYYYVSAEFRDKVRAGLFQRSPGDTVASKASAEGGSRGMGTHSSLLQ
Text: The FLIPR assay is an exemplary in vitro assay for measuring the activity of the PAR4 antagonists of the present invention. In this assay, intracellular calcium mobilization is induced in PAR4 expressing cells by a PAR4 agonist and calcium mobilization is monitored.
HEK293 cells stably expressing PAR4 were generated by a standard method of transfection of human PAR4 (F2R23) cDNA expression vector and selected based on PAR4 protein expression or mRNA expression. […] These cells also express endogenous PAR1 and can elicit calcium signal upon stimulation with PAR1 agonist peptide. Therefore, the same cells were also used to determine selectivity against PAR1 and agonist activity for both receptors. Cells from HEK293 PAR4 Clone 1.2A (BMS Arctic ID 383940) were propagated and used for calcium mobilization studies.
FLIPR-based calcium mobilization assay in HEK293 cells was used to measure PAR4 antagonism, agonism, and selectivity against PAR1. The activity of the PAR4 antagonists of the present invention were tested in PAR4 expressing cells by monitoring H-Ala-Phe(4-F)-Pro-Gly-Trp-Leu-Val-Lys-Asn-Gy-NH2-induced intracellular calcium mobilization. Counter screens for agonist activity and PAR1 antagonist activity were also performed. Briefly, PAR1/PAR4-expressing HEK293 cells were grown in DMEM (Life Technology, Grand Island, NY) containing 10% heat-inactivated FBS, 1% Penicillin-Streptomycin, 10 μg/mL blasticidin, and 100 μg/mL Zeocin at 37° C. with 5% CO2. Cells were plated overnight prior to the experiment in a black 384-well Purecoat Amine clear bottom plate (Becton Dickinson Biosciences, San Jose, CA) at 10,000 cells/well in 30 μL growth medium and incubated in a humidified chamber at 37° C. with 5% CO2 overnight. Prior to compound addition, the cell medium was replaced with 40 μL of 1× calcium and magnesium-containing Hank's Balanced Saline Solution (HBSS) (with 20 mM HEPES) and 1:1000 diluted fluorescent calcium indicator (Codex Biosolutions, Gaithersburg, MD). After a 30 minute incubation period at 37° C. and a further 30 minute incubation and equilibration period at room temperature, 20 μL test compound (diluted in 1×HBSS buffer) was added at various concentrations at 0.17% dimethyl sulfoxide (DMSO) final concentration. Changes in fluorescence intensity were measured using a Functional Drug Screening System (FDSS, Hamamatsu, Japan) to determine agonist activities. The cells were then incubated for 30 minutes at room temperature followed by addition of 20 μL of agonist peptide for antagonist activity measurement. […] Compound potency was derived from 11-point concentration-response curves.

Structure (SMILES)	IC50
COc1ccc(NC(=O)OCC2Cc3c(cc(Cl)c4nc(-c5cc(C)cc6nc(OC)cnc56)sc34)O2)cn1 (centres unmarked) [Example 17, (4-chloro-2-(2-methoxy-7-methylquinoxalin-5-yl)-7,8-dihydrobenzofuro[5,4-d]thiazol-7-yl)methyl (6-methoxypyridin-3-yl)carbamate]	3.1 nM
COc1cnc2c(-c3nc4c(Cl)cc5c(c4s3)CC(COC(=O)Nc3cccnc3)O5)cc(C)cc2n1 (centres unmarked) [Example 18, (4-chloro-2-(2-methoxy-7-methylquinoxalin-5-yl)-7,8-dihydrobenzofuro[5,4-d]thiazol-7-yl)methyl pyridin-3-ylcarbamate]	5.7 nM
COc1cnc2c(-c3nc4c(Cl)cc5c(c4s3)CC(COC(=O)Nc3ccc(C)nc3)O5)cc(C)cc2n1 (centres unmarked) [Example 19, (4-chloro-2-(2-methoxy-7-methylquinoxalin-5-yl)-7,8-dihydrobenzofuro[5,4-d]thiazol-7-yl)methyl (6-methylpyridin-3-yl)carbamate]	2.6 nM
Cc1cc(-c2nc3c(F)cc4c(c3s2)OCC(CNC(=O)OC(C)(C)C)O4)c2ncc(OC(F)F)nc2c1 (centres unmarked) [Example 21, tert-butyl ((2-(2-(difluoromethoxy)-7-methylquinoxalin-5-yl)-4-fluoro-7,8-dihydro-[1,4]dioxino[2′,3′:3,4]benzo[1,2-d]thiazol-7-yl)methyl)carbamate]	10 nM
Cc1cc(-c2nc3c(F)cc4c(c3s2)OC(CO)CO4)c2ncc(OC(F)F)nc2c1 (centres unmarked) [Example 22, (2-(2-(difluoromethoxy)-7-methylquinoxalin-5-yl)-4-fluoro-7,8-dihydro-[1,4]dioxino[2′,3′:3,4]benzo[1,2-d]thiazol-8-yl)methanol]	8.8 nM
Cc1cc(-c2nc3c(F)cc4c(c3s2)OC(CNC(=O)OC(C)(C)C)CO4)c2ncc(OC(F)F)nc2c1 (centres unmarked) [Example 23, tert-butyl ((2-(2-(difluoromethoxy)-7-methylquinoxalin-5-yl)-4-fluoro-7,8-dihydro-[1,4]dioxino[2′,3′:3,4]benzo[1,2-d]thiazol-8-yl)methyl)carbamate]	9.4 nM
COc1cnc2c(-c3nc4c(F)cc5c(c4s3)OC(COC(=O)Nc3ccccc3)CO5)cc(C)cc2n1 (centres unmarked) [Example 24, (4-fluoro-2-(2-methoxy-7-methylquinoxalin-5-yl)-7,8-dihydro-[1,4]dioxino[2′,3′:3,4]benzo[1,2-d]thiazol-8-yl)methyl phenylcarbamate]	9 nM
COc1cnc2c(-c3nc4c(Cl)cc5c(c4s3)OC[C@H](COC(=O)Nc3cncc(Cl)c3)O5)cc(C)cc2n1 [Example 25, (R)-(4-chloro-2-(2-methoxy-7-methylquinoxalin-5-yl)-7,8-dihydro-[1,4]dioxino[2′,3′:3,4]benzo[1,2-d]thiazol-7-yl)methyl (5-chloropyridin-3-yl)carbamate]	25 nM
COc1cnc2c(-c3nc4c(Cl)cc5c(c4s3)OC[C@H](COC(=O)Nc3ccccc3)O5)cc(C)cc2n1 [Example 26, (R)-(4-chloro-2-(2-methoxy-7-methylquinoxalin-5-yl)-7,8-dihydro-[1,4]dioxino[2′,3′:3,4]benzo[1,2-d]thiazol-7-yl)methyl phenylcarbamate]	10 nM
COc1cnc2c(-c3nc4c(Cl)cc5c(c4s3)OC[C@H](COC(=O)Nc3cccc(C#N)c3)O5)cc(C)cc2n1 [Example 27, (R)-(4-chloro-2-(2-methoxy-7-methylquinoxalin-5-yl)-7,8-dihydro-[1,4]dioxino[2′,3′:3,4]benzo[1,2-d]thiazol-7-yl)methyl (3-cyanophenyl)carbamate]	2.2 nM
COc1cnc2c(-c3nc4c(Cl)cc5c(c4s3)OC[C@H](COC(=O)Nc3cncc(F)c3)O5)cc(C)cc2n1 [Example 28, (R)-(4-chloro-2-(2-methoxy-7-methylquinoxalin-5-yl)-7,8-dihydro-[1,4]dioxino[2′,3′:3,4]benzo[1,2-d]thiazol-7-yl)methyl (5-fluoropyridin-3-yl)carbamate]	480 nM
COc1cnc2c(-c3nc4c(Cl)cc5c(c4s3)OC[C@H](COC(=O)Nc3ccc(F)nc3)O5)cc(C)cc2n1 [Example 29, (R)-(4-chloro-2-(2-methoxy-7-methylquinoxalin-5-yl)-7,8-dihydro-[1,4]dioxino[2′,3′:3,4]benzo[1,2-d]thiazol-7-yl)methyl (6-fluoropyridin-3-yl)carbamate]	2.9 nM
COc1cnc2c(-c3nc4c(Cl)cc5c(c4s3)OC[C@H](COC(=O)Nc3ccncc3)O5)cc(C)cc2n1 [Example 30, (R)-(4-chloro-2-(2-methoxy-7-methylquinoxalin-5-yl)-7,8-dihydro-[1,4]dioxino[2′,3′:3,4]benzo[1,2-d]thiazol-7-yl)methyl pyridin-4-ylcarbamate]	3.6 nM
COc1cnc2c(-c3nc4c(Cl)cc5c(c4s3)OC[C@H](COC(=O)Nc3cccnc3)O5)cc(C)cc2n1 [Example 31, (R)-(4-chloro-2-(2-methoxy-7-methylquinoxalin-5-yl)-7,8-dihydro-[1,4]dioxino[2′,3′:3,4]benzo[1,2-d]thiazol-7-yl)methyl pyridin-3-ylcarbamate]	0.9 nM
COc1cnc2c(-c3nc4c(Cl)cc5c(c4s3)OC[C@H](COC(=O)Nc3ccc(Cl)nc3)O5)cc(C)cc2n1 [Example 32, (R)-(4-chloro-2-(2-methoxy-7-methylquinoxalin-5-yl)-7,8-dihydro-[1,4]dioxino[2′,3′:3,4]benzo[1,2-d]thiazol-7-yl)methyl (6-chloropyridin-3-yl)carbamate]	1.8 nM
COc1cnc2c(-c3nc4c(Cl)cc5c(c4s3)OC[C@H](COC(=O)Nc3ccnc(C)c3)O5)cc(C)cc2n1 [Example 33, (R)-(4-chloro-2-(2-methoxy-7-methylquinoxalin-5-yl)-7,8-dihydro-[1,4]dioxino[2′,3′:3,4]benzo[1,2-d]thiazol-7-yl)methyl (2-methylpyridin-4-yl)carbamate]	2.8 nM
COc1cnc2c(-c3nc4c(Cl)cc5c(c4s3)OC[C@H](COC(=O)Nc3ccnnc3)O5)cc(C)cc2n1 [Example 34, (R)-(4-chloro-2-(2-methoxy-7-methylquinoxalin-5-yl)-7,8-dihydro-[1,4]dioxino[2′,3′:3,4]benzo[1,2-d]thiazol-7-yl)methyl pyridazin-4-ylcarbamate]	3.3 nM
COc1cnc2c(-c3nc4c(Cl)cc5c(c4s3)OC[C@H](COC(=O)Nc3ccc(C#N)nc3)O5)cc(C)cc2n1 [Example 35, (R)-(4-chloro-2-(2-methoxy-7-methylquinoxalin-5-yl)-7,8-dihydro-[1,4]dioxino[2′,3′:3,4]benzo[1,2-d]thiazol-7-yl)methyl (6-cyanopyridin-3-yl)carbamate]	1.4 nM
COc1cc(NC(=O)OC[C@H]2COc3c(cc(Cl)c4nc(-c5cc(C)cc6nc(OC)cnc56)sc34)O2)ccn1 [Example 36, (R)-(4-chloro-2-(2-methoxy-7-methylquinoxalin-5-yl)-7,8-dihydro-[1,4]dioxino[2′,3′:3,4]benzo[1,2-d]thiazol-7-yl)methyl (2-methoxypyridin-4-yl)carbamate]	1.7 nM
COc1cnc2c(-c3nc4c(Cl)cc5c(c4s3)OC[C@H](COC(=O)Nc3cncc(C#N)c3)O5)cc(C)cc2n1 [Example 37, (R)-(4-chloro-2-(2-methoxy-7-methylquinoxalin-5-yl)-7,8-dihydro-[1,4]dioxino[2′,3′:3,4]benzo[1,2-d]thiazol-7-yl)methyl (5-cyanopyridin-3-yl)carbamate]	1.5 nM
